Where two headings read alike, the source gives them in different places.

The subject of data set [1] is MV4-11 (FLT3 ITD) cell line xenograft. In words: in vivo AML xenograft study, tumor volume inhibition. The following applies: MV4-11 xenograft, per os from day 19, MEN 25 mg/kg Q1 × 14 d, Gilteritinib 3 mg/kg Q1 × 22 d, combination each as above.
Method: For the AML xenograft model, 10×10^6 MV4-11 cells were re-suspended in 0.2 ml of BME type III (Trevigen) at 5.6 mg/ml+DPBS (1:1) and then injected subcutaneously into the right flank of 6-8 weeks old female SCID mice (Charles River, Calco, Italy).
After injection, mice were maintained in micro isolator cages under continuously monitored environmental conditions. Drinking water and specific sterilized diet (VRF1, Charles River) were supplied ad libitum. […] Twice a week, tumor growth and body weight were evaluated and recorded.
(§3) The outcome evaluation was carried out as follows: tumor volumes were measured by caliper, and tumor masses were calculated using the following formula: [length (mm)×width^2 (mm)×d]/2, assuming density, d=1 mg/mm^3 for tumor tissue (Teicher B. Totowa, 1997).
The treatment efficacy was assessed as TVI % in treated versus control mice, using the following formula: TVI %=(1−Volume Average of treated tumor mass/Volume Average of control tumor)*100.
Mice were sacrificed when tumors reached a volume of around 10% of total body weight or when mice's body weight decreased by more than 20% compared to control animals for 7 days or more. Animals were euthanized with carbon dioxide exposure according to the standard procedures (Annex IV of Directive 2010/63/EU; 2010).
GraphPad Prism software (GraphPAD Software Inc., California) was used for statistical analysis. Statistical differences were considered to be significant at p-value<0.05 using the two-tailed Mann-Whitney rank test.
Data set [2] deals with MOLM-13 (FLT3 ITD) cell line xenograft. The description is as above. The following applies: MOLM-13 xenograft, per os from day 15, MEN 25 mg/kg Q1 × 14 d, Gilteritinib 3 mg/kg Q1 × 14 d, combination each as above.
Method: For the AML xenograft model, 10×10^6 MOLM-13 cells were re-suspended in 0.2 ml of BME type III (Trevigen) at 5.6 mg/ml+DPBS (1:1) and then injected subcutaneously into the right flank of 6-8 weeks old female CD-1 mice (Charles River, Calco, Italy).
After injection, mice were maintained in micro isolator cages under continuously monitored environmental conditions. Drinking water and specific sterilized diet (VRF1, Charles River) were supplied ad libitum. Environmental conditions, as well as the procedures for housing and handling the animals, complied with the UKCCCR guideline (Workman P et al., 2010) and the European Convention for the protection of vertebrate animals used for experimental and other scientific purposes (Directive 2010/63/EU; 2010). Twice a week, tumor growth and body weight were evaluated and recorded.
as §3
The treatment efficacy was assessed as TVI % in treated versus control mice, using the following formula: TVI %=(1−Volume Average of treated tumor mass/Volume Average of control tumor)*100. […]
The test system of data set [3] is KG-1 cells (FLT wildtype). The experiment in a line: in vitro standard cytotoxicity (MTS, 72 h), MEN and Gilt single agent or combination, Combination Index. Format: cell-based, human. The settings on record: for IC50: Homo sapiens. The text has this:
Human acute myeloid leukemia cell line KG-1 was obtained from DSMZ, Braunschweig, Germany (ACC14).

In the next data set the test system is MV4-11 cells (FLT3 ITD). The data set is described as above. Format: cell-based, human. The following applies: for IC50: Homo sapiens, read-out: IC50 dose level (single agent cytotoxicity). Here is the method:
(§1) In an in vitro standard cytotoxicity experiment, two AML cell lines (MV4-11 [FLT3 ITD] and MOLM-13 [FLT3 ITD]) were treated for 72 hours with MEN and Gilt (a Type I inhibitor) either as a single agent or in combination.
(§2) Human acute myeloid leukemia cell lines MV4-11 and MOLM-13 were obtained from DSMZ, Braunschweig, Germany (ACC102 and ACC554). […] All cells were incubated at 37° C., 5% CO2, 80% relative humidity.

The subject of a further data set is MOLM-13 cells (FLT3 ITD). Described as above. Format: cell-based, human. The settings on record: MTS (Table 2); for IC50: Homo sapiens, read-out: IC50 dose level (single agent cytotoxicity). Here is the method: as §1, §2
In data set [4] the test system is MOLM-13 cells.
Method: (§4) The synergistic effect of the combination was measured according to the Combination Index calculation (Chou T C, 2006).
(§5) MOLM-13 cells were grown in RPMI with 20% FBS and incubated at 37° C., 5% CO2, 80% relative humidity.
(§6) 20907) were dissolved in DMSO, divided into aliquots and stored at −80° C. until use. Stock solutions were added at appropriate concentration in culture medium before the addition to cells.
(§7) For cytotoxicity studies cells were seeded at appropriate density (50.000 cells/well) prior to addition of MEN and Quiz at day 0. […] After 72 hours, CellTiter 96 Aqueous One Solution Reagent (MTS) (Promega, Madison. WI, USA) was added to assess the cell viability. Fluorescence was measured 4 h later using Tecan Infinite M200 (Tecan Trading AG, Switzerland), recording absorbance at 490 nm. Quantitative measurement of synergism/antagonism was evaluated with Combination Index (CI) on the Fraction affected (Fa) using CompuSyn (ComboSyn, Inc. Paramus, NJ, USA) (Chou T C, 2006).
In data set [5] the test system is MOLM-13 cells. In words: in vitro standard cytotoxicity (MTS, 72 h), MEN and Quizartinib single agent or combination, Combination Index. The settings on record: for IC50: Homo sapiens, MOLM-13, 72 h, read-out: IC50 (single agent cytotoxicity).
Method: as §4, §5, §6, §7
[6] abbreviates: MOLM-13 cells, 72 h, MTS (Table 5).

Consider `CCc1nc(C(N)=O)c(Nc2ccc(N3CCC(N4CCN(C)CC4)CC3)c(OC)c2)nc1NC1CCOCC1` [Gilteritinib], for which, in data set [1], the “TVI % Day 33” value is reported as 84.1% and the “TVI % Day 40” value was determined as 87.6%. Further, the “TVI % Day 29” value in data set [2] is 60.1%. Further, in data set [3], the “IC10 (single agent cytotoxicity)” value worked out at 0.03534 µM, the “IC25 (single agent cytotoxicity)” value was determined as 0.1502 µM, the “IC75 (single agent cytotoxicity)” value stood at 2.7120 µM and the IC50 came out at 638 nM. Besides, in the data set with MV4-11 cells (FLT3 ITD), the “IC10 dose level (single agent cytotoxicity)” value (shortened to “IC10 dose level”) amounted to 0.0022 µM, the “IC25 dose level (single agent cytotoxicity)” value (“IC25 dose level” below) was 0.0042 µM, the “IC75 dose level (single agent cytotoxicity)” value (from here on “IC75 dose level”) came out at 0.0140 µM and the IC50 was found to be 7.9 nM. Moreover, in the data set on MOLM-13 cells (FLT3 ITD), the IC50 is 11 nM, the “IC10 dose level” value turned out to be 0.0014 µM, the “IC25 dose level” value came to 0.0040 µM and the “IC75 dose level” value was 0.0320 µM.

Consider `CC(C)(C)c1cc(NC(=O)Nc2ccc(-c3cn4c(n3)sc3cc(OCCN5CCOCC5)ccc34)cc2)no1` [QUIZ, Quizartinib], for which, in the data set on MOLM-13 cells [4], the “IC10 (single agent cytotoxicity)” value was 374 pM, the “IC25 (single agent cytotoxicity)” value was 595 pM and the “IC75 (single agent cytotoxicity)” value turned out to be 1.504 nM. In the data set on MOLM-13 cells [5], the IC50 came out at 0.946 nM.

For `CC(C)n1c(C2CCNCC2)nc2c([N+](=O)[O-])c(Br)c(Br)cc21` [MEN, 5,6-dibromo-4-nitro-2-(piperidin-4-yl)-1-(propan-2-yl)-1H-1,3-benzodiazole], in data set [1], the “TVI % Day 33” value was determined as 57.2% and the “TVI % Day 40” value came to 53.1%. For the same molecule, the “TVI % Day 29” value in data set [2] came to 38.8%. Besides, in data set [3], the “IC10 (single agent cytotoxicity)” value is 0.05748 µM, the “IC25 (single agent cytotoxicity)” value came to 0.203 µM, the “IC75 (single agent cytotoxicity)” value is 2.530 µM and the IC50 was found to be 717 nM. Moreover, the IC50 in the data set with MOLM-13 cells [5] was 510 nM. Further, in the data set on MOLM-13 cells [5] (setting [6]), the “IC10 (single agent cytotoxicity)” value amounted to 0.08729 µM, the “IC25 (single agent cytotoxicity)” value amounted to 0.3222 µM and the “IC75 (single agent cytotoxicity)” value was found to be 1.234 µM. In the data set on MV4-11 cells (FLT3 ITD), the “IC10 dose level” value was 0.151 µM, the “IC25 dose level” value turned out to be 0.293 µM, the “IC75 dose level” value is 1.103 µM and the IC50 was 569 nM. In the data set on MOLM-13 cells (FLT3 ITD), the IC50 amounted to 510 nM, the “IC10 dose level” value came to 0.087 µM, the “IC25 dose level” value was 0.21 µM and the “IC75 dose level” value was 1.23 µM.

The values above are taken from US20260216163A1, “CANCER COMBINATION THERAPY INCLUDING A FLT3-INHIBITOR” (RYVU THERAPEUTICS S.A., priority 2022, published 2026).
